From patent US10611740B2, “Aryl dihydro-2H-benzo[b][1,4]oxazine sulfonamide and related compounds for use as agonists of RORγ and the treatment of disease” (Lycera Corporation, priority 2015, dated 2020)
pEC50: −log10 of the molar value.

Experiments:
[1] = biological target: T1, Gal4-RORγ-LBD (Homo sapiens, UniProt P51449); assay: Gal4-RORγ Luciferase Reporter Assay in HEK-293T Cells; format: cell-based; conditions: HEK-293 cells
T1 construct: expressed in transfected cells; host or cells: HEK-293 cells (pcDNA3.1neo plasmid)
T1 sequence (P51449 269-508 limits assumed): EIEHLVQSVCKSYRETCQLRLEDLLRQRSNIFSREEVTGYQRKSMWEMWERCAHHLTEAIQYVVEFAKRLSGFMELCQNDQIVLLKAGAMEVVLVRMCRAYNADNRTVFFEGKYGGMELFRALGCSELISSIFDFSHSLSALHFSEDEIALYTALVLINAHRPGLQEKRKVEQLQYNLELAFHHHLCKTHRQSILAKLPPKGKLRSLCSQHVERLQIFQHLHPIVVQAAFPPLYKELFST
Procedure, shortened: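 Luminescence read-out (One-Glo, 10 min RT) after overnight compound exposure at 37 °C in HEK-293 cells carrying Gal4-RORγ-LBD plus a Gal4-luciferase reporter, in the presence of 2 μM ursolic acid. Max Response is the upper plateau from a 4-parameter logistic fit, normalized to untreated signal = 100.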

[2] = biological target: T2, RORγ-LBD (Homo sapiens, UniProt P51449); assay: RORγ-Ligand Binding Domain (LBD) TR-FRET Assay; format: biochemical;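 on TR-FRET Assay Max Response: 665/615 nm ratio relative to signal without ursolic acid or compound set at 100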
T2 construct: made in house; host or cells: SF9 cells (baculovirus)
T2 sequence (P51449 269-508 limits assumed): T1 sequence (P51449 269-508 limits assumed)
Procedure, shortened: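 TR-FRET read-out using a biotin-tagged SRC1 coactivator LXXLL peptide (200 nM final), with the antagonist ursolic acid present at 2 μM final. Receptor is His-tagged LBD expressed in SF9 cells, ~3 nM final in pH 7.0 Tris/KCl/EDTA/DTT/BSA buffer; compounds in 1% DMSO final.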

[3] = luciferase reporter, with 2 μM ursolic acid

Row | Structure (SMILES) | pEC50 ([1]; 2 μM ursolic acid) | pEC50 [2] | pEC50 [1, 3] | Gal4-RORγ Assay Max Response ([1]; 2 μM ursolic acid) | TR-FRET Assay Max Response [2] | Gal4-RORγ Assay Max Response [1, 3]
1 | CC(C)c1cccc(S(=O)(=O)N2C[C@H](CCc3n[nH]c(=O)o3)Oc3ccc(-c4cc(F)ccc4F)cc32)c1 [Compound 28D, (S)-5-(2-(6-(2,5-difluorophenyl)-4-((3-isopropylphenyl)sulfonyl)-3,4-dihydro-2H-benzo[b][1,4]-oxazin-2-yl)ethyl)-1,3,4-oxadiazol-2(3H)-one] | – | > 6.30 | > 6.30 | – | **** (The symbol “****” indicates a value greater than 200) | ** (The symbol “**” indicates a value in the range of greater than 90 to 150)
2 | O=C(O)CC[C@H]1CN(S(=O)(=O)c2cccc(C(F)(F)F)c2)c2cc(-c3cccc(Cl)c3F)cc(F)c2O1 [Compound 22I, (S)-3-(6-(3-chloro-2-fluoro-phenyl)-8-fluoro-4-((3-(trifluoromethyl)phenyl)sulfonyl)-3,4-dihydro-2H-benzo[b][1,4]-oxazin-2-yl)propanoic acid] | > 6.30 | > 6.30 | – | ** (The symbol “**” indicates a value in the range of greater than 90 to 150) | *** (The symbol “***” indicates a value in the range of greater than 150 to 200) | –
3 | O=C(O)C1(C[C@H]2CN(S(=O)(=O)c3cccc(C(F)(F)F)c3)c3cc(-c4cc(F)cc(OC(F)F)c4)ccc3O2)CCC1 [Compound 32BH, (S)-1-((6-(3-(difluoromethoxy)-5-fluorophenyl)-4-((3-(trifluoro-methyl)phenyl)sulfonyl)-3,4-dihydro-2H-benzo[b][1,4]oxazin-2-yl)methyl)cyclobutane-l-carboxylic acid] | 5.30 to 6.30 | > 6.30 | – | ** (The symbol “**” indicates a value in the range of greater than 90 to 150) | *** (The symbol “***” indicates a value in the range of greater than 150 to 200) | –
4 | CC(C)c1ccc(-c2ccc3c(c2)N(S(=O)(=O)c2cccc(C(F)(F)F)c2)C[C@H](CCC(=O)O)O3)cc1 [Compound 2Z, (S)-3-(6-(4-isopropylphenyl)-4-((3-(trifluoromethyl)phenyl)-sulfonyl)-3,4-dihydro-2H-benzo[b][1,4]oxazin-2-yl)propanoic acid] | – | > 6.30 | < 5.00 | – | ** (The symbol “**” indicates a value in the range of greater than 90 to 150) | –
5 | O=C(O)[C@@H]1CCCN1C(=O)NCC[C@H]1CN(S(=O)(=O)c2cccc(C(F)(F)F)c2)c2cc(-c3cc(F)ccc3F)ccc2O1 [Compound 23V, ((2-((S)-6-(2,5-difluorophenyl)-4-((3-(trifluoromethyl)phenyl)-sulfonyl)-3,4-dihydro-2H-benzo[b][1,4]oxazin-2-yl)ethyl)carbamoyl)-L-proline] | – | > 6.30 | 5.30 to 6.30 | – | **** (The symbol “****” indicates a value greater than 200) | ** (The symbol “**” indicates a value in the range of greater than 90 to 150)
6 | CC(=O)NCC[C@H]1CN(S(=O)(=O)c2cccc(C(F)(F)F)c2)c2cc(-c3cc(F)ccc3F)ccc2O1 [Compound 13, (S)—N-(2-(6-(2,5-difluorophenyl)-4-((3-(trifluoromethyl)phenyl)sulfonyl)-3,4-dihydro-2H-benzo[b][1,4]oxazin-2-yl)ethyl)acetamide] | > 6.30 | > 6.30 | – | ** (The symbol “**” indicates a value in the range of greater than 90 to 150) | **** (The symbol “****” indicates a value greater than 200) | –
7 | CC(C)(O)C(=O)NC[C@H]1CN(S(=O)(=O)c2cccc(C(F)(F)F)c2)c2cc(-c3cc(F)ccc3F)ccc2O1 [Compound 17, (S)—N-((6-(2,5-difluorophenyl)-4-((3-(trifluoromethyl)phenyl)sulfonyl)-3,4-dihydro-2H-benzo[b][1,4]oxazin-2-yl)methyl)-2-hydroxy-2-methylpropanamide] | > 6.30 | > 6.30 | – | ** (The symbol “**” indicates a value in the range of greater than 90 to 150) | **** (The symbol “****” indicates a value greater than 200) | –
8 | CC(C)(O)C(=O)NC[C@H]1CN(S(=O)(=O)c2cncc(C(F)(F)F)c2)c2cc(-c3cc(F)ccc3F)ccc2O1 [Compound 30U, (S)-N-((6-(2,5-difluorophenyl)-4-((5-(trifluoromethyl)pyridin-3-yl)sulfonyl)-3,4-dihydro-2H-benzo[b][1,4]oxazin-2-yl)methyl)-2-hydroxy-2-methylpropanamide] | – | > 6.30 | > 6.30 | – | *** (The symbol “***” indicates a value in the range of greater than 150 to 200) | ** (The symbol “**” indicates a value in the range of greater than 90 to 150)
9 | CC(C)c1cccc(S(=O)(=O)N2C[C@H](CNC(=O)C(C)(C)O)Oc3ccc(-c4cccc(N(C)C)n4)cc32)c1 [Compound 30J, (S)-N-((6-(6-(dimethylamino)-pyridin-2-yl)-4-((3-isopropylphenyl)sulfonyl)-3,4-dihydro-2H-benzo[b][1,4]oxazin-2-yl)methyl)-2-hydroxy-2-methylpropanamide] | – | > 6.30 | > 6.30 | – | **** (The symbol “****” indicates a value greater than 200) | * (The symbol “*” indicates a value in the range of 25 to 90)
10 | CC(C)(C[C@H]1CN(S(=O)(=O)c2cccc(C(F)(F)F)c2)c2cc(-c3cccc(C(F)(F)F)n3)ccc2O1)C(=O)O [Compound 32E, (S)-2,2-dimethyl-3-(4-((3-(trifluoromethyl)phenyl)sulfonyl)-6-(6-(trifluoromethyl)pyridin-2-yl)-3,4-dihydro-2H-benzo[b][1,4]oxazin-2-yl)propanoic acid] | – | > 6.30 | > 6.30 | – | **** (The symbol “****” indicates a value greater than 200) | ** (The symbol “**” indicates a value in the range of greater than 90 to 150)

The next lines start with results.

Row | pEC50 ([1]; 2 μM ursolic acid) | pEC50 [2] | pEC50 [1, 3] | Structure (SMILES) | Gal4-RORγ Assay Max Response ([1]; 2 μM ursolic acid) | TR-FRET Assay Max Response [2] | Gal4-RORγ Assay Max Response [1, 3]
11 | 5.00 to 5.30 | > 6.30 | – | O=C1CC[C@@](C[C@H]2CN(S(=O)(=O)c3cccc(C(F)(F)F)c3)c3cc(-c4cc(F)ccc4F)ccc3O2)(C(=O)O)N1 [Compound 75, (R)-2-(((S)-6-(2,5-difluorophenyl)-4-((3-(trifluoromethyl)phenyl)sulfonyl)-3,4-dihydro-2H-benzo[b][1,4]oxazin-2-yl)methyl)-5-oxopyrrolidine-2-carboxylic acid] | *** (The symbol “***” indicates a value in the range of greater than 150 to 200) | ** (The symbol “**” indicates a value in the range of greater than 90 to 150) | –
12 | 5.30 to 6.30 | > 6.30 | – | CC(=O)N[C@H]1C[C@](C[C@H]2CN(S(=O)(=O)c3cccc(C(F)(F)F)c3)c3cc(-c4cc(F)ccc4F)ccc3O2)(C(=O)O)C1 [Compound 89B, (1r,3S)-3-acetamido-1-(((S)-6-(2,5-difluorophenyl)-4-((3-(trifluoro-methyl)phenyl)sulfonyl)-3,4-dihydro-2H-benzo[b][1,4]oxazin-2-yl)methyl)cyclobutane-1-carboxylic acid] | ** (The symbol “**” indicates a value in the range of greater than 90 to 150) | ** (The symbol “**” indicates a value in the range of greater than 90 to 150) | –
13 | – | > 6.30 | 5.30 to 6.30 | O=C(CC[C@H]1CN(S(=O)(=O)c2cccc(C(F)(F)F)c2)c2cc(-c3ccc(F)cc3F)ccc2O1)NS(=O)(=O)C1CC1 [Compound 43B, (S)-N-(cyclopropylsulfonyl)-3-(6-(2,4-difluorophenyl)-4-((3-(trifluoromethyl)phenyl)-sulfonyl)-3,4-dihydro-2H-benzo[b][1,4]oxazin-2-yl)propanamide] | – | **** (The symbol “****” indicates a value greater than 200) | ** (The symbol “**” indicates a value in the range of greater than 90 to 150)
14 | > 6.30 | > 6.30 | – | CC(=O)N1CC(C[C@H]2CN(S(=O)(=O)c3cccc(C(F)(F)F)c3)c3cc(-c4cc(F)ccc4F)ccc3O2)C1 [Compound 62, (S)-1-(3-((6-(2,5-difluorophenyl)-4-((3-(trifluoromethyl)phenyl)sulfonyl)-3,4-dihydro-2H-benzo[b][1,4]oxazin-2-yl)methyl)azetidin-1-yl)ethan-1-one] | ** (The symbol “**” indicates a value in the range of greater than 90 to 150) | ** (The symbol “**” indicates a value in the range of greater than 90 to 150) | –
15 | > 6.30 | > 6.30 | – | COc1cc(S(=O)(=O)N2C[C@H](CNS(=O)(=O)N(C)CCO)Oc3ccc(-c4cc(F)ccc4F)cc32)ccc1F [Compound 45D, ([[(2S)-6-(2,5-difluorophenyl)-4-[[4-fluoro-3-methoxy-benzene]-sulfonyl]-3,4-dihydro-2H-1,4-benzoxazin-2-yl]methyl]sulfamoyl)-(N-methyl-N-2-hydroxyethyl)-amine] | * (The symbol “*” indicates a value in the range of 25 to 90) | *** (The symbol “***” indicates a value in the range of greater than 150 to 200) | –
